Laboratory results reported in patent US8680110B2, “P2X4 receptor antagonist” (Nippon Chemiphar Co., Ltd., priority 2010, dated 2014).
Counter-ions that a name gives are not always drawn.

Target: T1, human P2X4 receptors (Homo sapiens, UniProt Q99571)
T1 sequence (Q99571 1-388): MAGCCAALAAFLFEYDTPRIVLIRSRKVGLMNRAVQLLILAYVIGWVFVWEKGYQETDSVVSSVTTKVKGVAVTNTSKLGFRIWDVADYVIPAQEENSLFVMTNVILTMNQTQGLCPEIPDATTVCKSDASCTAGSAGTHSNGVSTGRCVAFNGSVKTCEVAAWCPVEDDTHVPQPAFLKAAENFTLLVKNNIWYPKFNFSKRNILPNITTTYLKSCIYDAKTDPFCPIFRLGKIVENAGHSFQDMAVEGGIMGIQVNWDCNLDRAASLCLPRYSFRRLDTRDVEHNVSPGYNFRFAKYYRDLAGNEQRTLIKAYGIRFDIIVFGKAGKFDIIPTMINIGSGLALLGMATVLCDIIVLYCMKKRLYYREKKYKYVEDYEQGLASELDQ
Test: P2X4 receptor antagonism, intracellular calcium assay (Fura-2 AM) in 1321N1 cells
Assay type: cell-based
Conditions: 1321N1 cells stably expressing human P2X4 receptors; compound added 15 minutes before ATP; ATP-induced calcium influx; read-out: Inhibition activities (IC50 μM)
Protocol: 1321N1 cells stably expressing human P2X4 receptors were plated in 96-well assay plate and cultured 24 hours at 37° C. in an atmosphere of 5% CO2 for intracellular calcium assay. Fura-2 AM calcium fluorescent indicator was used for the intracellular calcium assay. Fura-2 AM was dissolved in an assay buffer, and the solution was loaded onto cells. The obtained plate was used for fluorescent assay. Test compounds were treated to cells 15 minutes before the addition of ATP, and the response to intracellular calcium influx induced by addition of ATP was monitored by a micro plate reader. The fluorescence ratio of excitations wavelengths of 340 nm and 380 nm was used as the index of intracellular calcium change. The inhibition activities of the test compounds were calculated by comparison with the absence of the test compound (control).
P2X4 receptor antagonism of the compound of the present invention was measured as described below. […]
Test compounds were treated to cells 15 minutes before the addition of ATP, and the response to intracellular calcium influx induced by addition of ATP was monitored by a micro plate reader. The fluorescence ratio of excitations wavelengths of 340 nm and 380 nm was used as the index of intracellular calcium change. The inhibition activities of the test compounds were calculated by comparison with the absence of the test compound (control).

SMILES: O=c1nc(-c2cccc(-c3nnn[nH]3)c2)c2ccc3ccccc3c2[nH]1 [Example 2, 4-[3-(1H-Tetrazol-5-yl)phenyl]-1H-benzo[h]quinazolin-2-one sodium salt]
- IC50: 0.16 µM
